In series [1] the test system is organic cation transporter 2 (OCT2). Also on record: method as in PMID 17582384, PMID 21144842. Conditions: cited from earlier work.
Series [2] deals with ciPTEC. Nature of the series: Intracellular platinum accumulation by AAS in ciPTECs. The class given is in vitro ADME, human. The following applies: 2 h. The protocol: The renal cell line ciPTEC (conditionally immortalized proximal tubule epithelial cells), which was purchased from Dr. Martijn Wilmer, was used in the current study. ciPTECs were cultured in DMEM-HAM’s F12 phenol red-free medium (Gibco, Thermo Fisher Scientific, Dreieich, Germany) supplemented with 10% fetal calf serum (FCS) (Invitrogen, Darmstadt, Germany), 5 µg/mL insulin, 5 µg/mL transferrin, 5 ng/mL selenium, 36 ng/mL hydrocortisone, 10 ng/mL EGF (epidermal growth factor) and 40 pg/mL tri-iodothyronine (Sigma-Aldrich, Steinheim, Germany). For maintaining the proliferation status, cells were cultured at 33 °C in a humidified atmosphere of 5% CO2 in medium supplemented with 1% penicillin/streptomycin (P/S) (Sigma-Aldrich, Steinheim, Germany). […]
Atomic absorption spectroscopy (AAS) was used to determine the intracellular accumulation after treatment with the platinum compounds. ciPTECs were seeded in T75 flasks and cultivated as stated before. […] Cells were then harvested via centrifugation and total cell count was determined. […] The residue was dissolved in 0.2% HNO3 and platinum amount was analyzed at a wavelength of […] in a graphite furnace using a PinAAcle 900 T (Perkin Elmer, Waltham, MA, USA). […] Intracellular accumulation was determined in three independent experiments and was calculated as ng Pt/10^6 cells.

Series [3] concerns ciPTEC. The series can be described thus: Cytotoxicity by relative cell count (RCC). It counts as cell-based, human. Conditions: 24 h incubation; for pIC50: cell count after 48 h post-cultivation; for cell number compared to the control: 48 h post-cultivation. The protocol:
The renal cell line ciPTEC (conditionally immortalized proximal tubule epithelial cells), which was purchased from Dr. Martijn Wilmer, was used in the current study. ciPTECs were cultured in DMEM-HAM’s F12 phenol red-free medium (Gibco, Thermo Fisher Scientific, Dreieich, Germany) supplemented with 10% fetal calf serum (FCS) (Invitrogen, Darmstadt, Germany), 5 µg/mL insulin, 5 µg/mL transferrin, 5 ng/mL selenium, 36 ng/mL hydrocortisone, 10 ng/mL EGF (epidermal growth factor) and 40 pg/mL tri-iodothyronine (Sigma-Aldrich, Steinheim, Germany). For maintaining the proliferation status, cells were cultured at 33 °C in a humidified atmosphere of 5% CO2 in medium supplemented with 1% penicillin/streptomycin (P/S) (Sigma-Aldrich, Steinheim, Germany). […] For comparative analysis with the data obtained with the permanent cell line ciPTEC, studies were performed with primary patient-derived renal normal tissue cells (NT), which were obtained from patients at the University Medical Center Mainz. Cells were isolated from primary renal cancer samples of patients who underwent nephrectomy at the Department of Urology, University Medical Center Mainz. The study was performed in agreement with the Declaration of Helsinki and approved by local ethics committee (No. 837.005.09, Landesärztekammer Rheinland-Pfalz, Mainz, Germany). Each patient provided informed consent. NT cells were cultivated in RPMI-1640 medium (Sigma-Aldrich, Steinheim, Germany) containing 10% FCS and 5% P/S at 37 °C in a humidified atmosphere of 5% CO2.
Toxicity was determined by relative cell count (RCC). ciPTECs were seeded in duplicates in T25 flasks and cultivated as stated before. […] Cell count was then determined using a CASY® cell counter (CASY® TTC Cell Counter & Analyzer System). The cell counts of the treated samples were normalized to the untreated control to obtain the RCC expressed as percentage. RCC was determined in three independent experiments.

Series [4] concerns ciPTEC. The series can be described thus: Gene expression profiling by high-throughput RT-qPCR in ciPTECs. It counts as cell-based, human. Conditions: 24 h; for expression of genes related to transcription factors (general): PN149 20 µM, cisplatin 50 µM, oxaliplatin 150 µM; for HMOX1 gene expression: ROS-inducible gene; for IL-8 gene expression: marker for inflammation; for PMAIP1 gene expression: pro-apoptotic gene. How it is done: Gene expression profiles were generated using a high-throughput RT-qPCR method previously established in the institute. ciPTECs were cultivated in T25 flasks as stated before. […] RNA isolation and generation of gene expression profiles using a Fluidigm dynamic array on a BioMark™ (Rheinau, Germany) system were performed as previously described. For comparative analysis of ciPTEC with primary kidney cells, 5 × 10^5 NT cells were seeded in 10 cm dishes and cultivated for 24 h. […] Gene expression profiles in ciPTEC were generated in three independent experiments. Due to the limited amount of tissue material, gene expression analysis in primary kidney cells was performed in two independent experiments.

Series [5] has as its system testicular germ cell tumors. On the set-up: method as in PMID 12835671. The following applies: combination therapy against testicular germ cell tumors ref 2; cited from earlier work.
The next series relates to MATE1. Conditions: cited from earlier work.
Series [6] deals with primary patient-derived renal normal tissue cells (NT). The series can be described thus: Gene expression profiling by high-throughput RT-qPCR in primary renal normal tissue cells. Conditions: normal tissue (primary kidney cells), 20 µM cisplatin, 24 h. The class given is cell-based, human. The protocol: The renal cell line […] (conditionally immortalized proximal tubule epithelial cells), which was purchased from Dr. Martijn Wilmer, was used in the current study. […] For maintaining the proliferation status, cells were cultured at 33 °C in a humidified atmosphere of 5% CO2 in medium supplemented with 1% penicillin/streptomycin (P/S) (Sigma-Aldrich, Steinheim, Germany). For the experiments, […] were seeded at a density of 55,000 cells/cm^2 in cell culture flasks and were cultivated for 24 h at 33 °C. After 24 h, cells were transferred to 37 °C for maturation, while the medium was refreshed with medium containing no P/S. Cells were kept at 37 °C for 7 days while the medium was replaced every 2-3 days. For comparative analysis with the data obtained with the permanent cell line […], studies were performed with primary patient-derived renal normal tissue cells (NT), which were obtained from patients at the University Medical Center Mainz. Cells were isolated from primary renal cancer samples of patients who underwent nephrectomy at the Department of Urology, University Medical Center Mainz. The study was performed in agreement with the Declaration of Helsinki and approved by local ethics committee (No. 837.005.09, […]-Pfalz, Mainz, Germany). Each patient provided informed consent. […]
(In general: Real-time PCR tracks product formation cycle by cycle.)

Series [7] is described as follows: Anti-oxidant capacity: fluorescein consumption induced by AAPH-derived peroxyl radicals. Conditions: for effect on consumption of fluorescein: fluorescein 10 µM, AAPH 50 mM, phosphate buffer pH 7.4, 37 °C, cisplatin 10 µM, PN149 10, 25, 50 µM. How it is done: The influence of PN149 on the rates of the reaction of fluorescein with free radicals generated by the azo initiator 2,2′-azobis(2-amidinopropane) dihydrochloride (AAPH) was studied according to [35] in phosphate buffer (PB, 50 mM, pH 7.4) by measuring the decay of the probe at 494 nm with absorption spectrophotometer Specord UV–Vis equipped with a thermostated cell maintained at 37 °C. […] The lag phase of the reaction means no changes in the optical density of the reaction mixture. AAPH and fluorescein were purchased from Sigma-Aldrich, JM216 [e-ammine-d-(cyclohexylamine)-a,f-bis(acetato)-b,c-dichloroplatinum(IV)] was obtained as described in [36].

The next series relates to ciPTECs. Also on record: method as in PMID 26821801. Conditions: ciPTECs treated with cisplatin for 24 h, MTT assay ref 45; read-out: TC50 (≡ IC50); cited from earlier work. Background: Tetrazolium assays rely on reduction of a dye to a coloured formazan, in cell work by metabolically active cells.
In the next series the test system is MATE2-K. Conditions: cited from earlier work.

pIC50: −log10 of the molar value.

Broadly, the pIC50 is the IC50 on a negative log10 scale, so that one unit is a factor of ten. Consider `N.N.O=C([O-])C1(C(=O)[O-])CCC1.[Pt+2]` [Carboplatin], for which the “uptake via / affinity to OCT2” value in series [1] is on record as “no affinity to this transporter”. In addition, the “ng Pt/10^6 Cells (platinum accumulation)” value with ciPTEC [2] (300 µM carboplatin) amounted to 18 ± 2 ng Pt/10^6 cells. Besides, in the series on ciPTEC [3], the pIC50 is 3.76. Besides, in the series with ciPTEC [4], the NFKB2 gene expression entry is “repressed transcript levels”, the “expression of genes related to transcription factors (general)” value (shortened to “expression of genes related”) is listed as “no general down-regulation”, the HMOX1 gene expression result is “strongly induced” and the IL-8 gene expression entry is given as “repressed gene expression”. In addition, the PMAIP1 gene expression entry in the series on ciPTEC [4] is given as “strong concentration-dependent increase”.
As to `N.N.[Cl][Pt][Cl]` [Cisplatin], the cure rates result in series [5] is “over 80%”. Moreover, in the series with MATE1, the “affinity for MATE1” value is recorded as “only low affinity for MATE1”. Further, in the series on ciPTEC [3] (50 µM), the “cell number compared to the control” value is “less than 10%”. In the series with ciPTEC [3], this molecule gave a pIC50 of 4.89. In series [6], the “expression of DNA repair-related genes” value is recorded as “reduced transcript levels”. Further, the “effect on consumption of fluorescein” value in series [7] is on record as “only slightly slowed down the consumption of fluorescein”. For the same molecule, the pIC50 in the series with ciPTECs was 4.47. Besides, the “expression of DNA repair-related genes” value in the series on ciPTEC [4] (20 µM cisplatin) is given as “increased expression of several repair-related genes”. Also, in the series with ciPTEC [4], the NFKB2 gene expression entry was “slightly enhanced”, the “expression of genes related” value is “strong down-regulation of gene transcripts”, the HMOX1 gene expression result was “slightly lesser effects” and the IL-8 gene expression result is listed as “increased transcript levels”. Further, the PMAIP1 gene expression result with ciPTEC [4] is recorded as “strong concentration-dependent increase”. In the series with MATE2-K, the “affinity for MATE2-K” value is given as “no affinity for MATE2-K”.
For the molecule `CC(=O)[O-].CC(=O)[O-].N.NC1CCCCC1.[Cl-].[Cl-].[Pt+4]` [JM216, e-ammine-d-(cyclohexylamine)-a,f-bis(acetato)-b,c-dichloroplatinum(IV)], in series [7] (JM216 10 M as printed, data not shown), the “kinetics of fluorescein consumption” value is “practically coincided with curve 2 for cisplatin”.
For the molecule `O=C1[O][Pt]2([NH][C@@H]3CCCC[C@H]3[NH]2)[O]C1=O` [Oxaliplatin], in the series with ciPTEC [2] (50 µM), the “ng Pt/10^6 Cells (platinum accumulation)” value turned out to be 11 ± 2 ng Pt/10^6 cells. In the series with MATE1, the “affinity for MATE1” value was “substrate for both MATE1 and MATE2-K”. The pIC50 with ciPTEC [3] is 4.29. Besides, in the series with ciPTEC [4], the NFKB2 gene expression result is “slightly enhanced”, the “expression of genes related” value is on record as “widespread gene repression was restricted to the highest concentration used”, the HMOX1 gene expression entry is “slightly lesser effects” and the IL-8 gene expression result was “increased transcript levels”. Also, in the series on ciPTEC [4], the PMAIP1 gene expression result was “strong concentration-dependent increase”.
As for “e-ammine-d-(3-amino-2,2,5,5-tetramethylpyrrolidine-1-oxyl)-a,f-bis(butanoato)-b,c-dichloro-platinum(IV) [PN149]”, the “cell number compared to the control” value in the series on ciPTEC [3] (concentration not stated (Figure 2A)) is reported as “less than 5%”. The pIC50 in the series with ciPTEC [3] was 5.22. The “effect on consumption of fluorescein” value in series [7] is “effectively inhibited the consumption of fluorescein”. Besides, in the series on ciPTEC [4], the NFKB2 gene expression entry is recorded as “repressed transcript levels”, the “expression of genes related” value is recorded as “widespread gene repression”, the HMOX1 gene expression entry is “strongly induced” and the IL-8 gene expression entry is reported as “repressed gene expression”. The PMAIP1 gene expression result in the series on ciPTEC [4] was “peaked at 20 µM”. Besides, the HSPA1A gene expression entry in the series on ciPTEC [4] (heat-shock sensitive gene) is “strong concentration-dependent increase”.
